Assay results: ChEMBL document CHEMBL1201862, “PubChem BioAssay data set” (2004)
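In this assay, cells in 96-well plates receive the compound at five concentrations for 48 hours. Endpoints are linearly interpolated between the surrounding concentrations. GI50 = concentration required for 50% inhibition of growth.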 Active and inactive are the calls of the source. Cut-off read from the data, not from the text of the source: active = GI50 up to about 1.1 µM and inactive = higher.

Columns and labels:
Test in all cases: NCI-60 cell line screen, 48 h
TK-10 = tested on: TK-10
MOLT-4 = tested on: MOLT-4
M14 = tested on: M14
OVCAR-8 = tested on: OVCAR-8
MCF7 = tested on: MCF7
OVCAR-3 = tested on: OVCAR-3
KM12 = tested on: KM12
SK-MEL-28 = tested on: SK-MEL-28
UO-31 = tested on: UO-31
NCI-H226 = tested on: NCI-H226
SK-OV-3 = tested on: SK-OV-3
SNB-75 = tested on: SNB-75
IGROV-1 = tested on: IGROV-1
HCT-116 = tested on: HCT-116
SF-268 = tested on: SF-268
A549 = tested on: A549
SR = tested on: SR
NCI-H522 = tested on: NCI-H522
SK-MEL-2 = tested on: SK-MEL-2
SNB-19 = tested on: SNB-19

Measured: GI50

ClCCCN1CCN(CCCl)CC1
inactive: TK-10 357 µM | MOLT-4 5.24 µM | M14 137 µM | OVCAR-8 120 µM | MCF7 65.5 µM | OVCAR-3 167 µM | KM12 552 µM | SK-MEL-28 491 µM | UO-31 109 µM | NCI-H226 215 µM | SK-OV-3 56.2 µM | SNB-75 119 µM | IGROV-1 120 µM | HCT-116 195 µM | SF-268 57.3 µM | A549 110 µM | SR 7.98 µM | NCI-H522 121 µM | SK-MEL-2 238 µM | SNB-19 182 µM

N#Cc1c(N)nc(Nc2cccc3ccccc23)c(C#N)c1C#N
inactive: TK-10 > 10 µM | MOLT-4 3.03 µM | M14 6.61 µM | OVCAR-8 5.25 µM | MCF7 2.79 µM | OVCAR-3 2.3 µM | KM12 7.53 µM | SK-MEL-28 3.75 µM | UO-31 3.82 µM | NCI-H226 > 10 µM | SK-OV-3 3.94 µM | SNB-75 3.52 µM | IGROV-1 > 10 µM | HCT-116 2.54 µM | SF-268 3.68 µM | A549 5.71 µM | SR 3 µM | NCI-H522 2.9 µM | SK-MEL-2 > 10 µM | SNB-19 > 10 µM
